Data reported in paper PMC6112376, “Comprehensive Analyses and Prioritization of Tox21 10K Chemicals Affecting Mitochondrial Function by in-Depth Mechanistic Studies” (Environmental Health Perspectives, 2018).
Read-outs that look alike come from different tables or passages of the source.

Tests used:
[1] = system: p53 (p53-bla HCT-116 cells); experiment: p53 β-lactamase reporter gene assay; format: cell-based, human; settings: 16 h incubation; mean±SD of three experiments
HepG2 cells [2] = experiment: ROS-Glo hydrogen peroxide (ROS) assay; format: cell-based, human
HepG2 cells [3] = experiment: cells; settings: Homo sapiens
rat primary hepatocytes [4] = experiment: MMP assay in rat primary hepatocytes; settings: Rattus norvegicus, Hepatocyte
HepG2 cells [5] = experiment: Intracellular ATP content (cell viability) assay; format: cell-based, human
[6] = system: Caenorhabditis elegans (Bristol N2); experiment: C. elegans larval development and growth assay
rat primary hepatocytes [7] = system: rat primary hepatocytes
[8] = system: isolated rat liver mitochondria; experiment: Oxygen consumption, Clark-type oxygen electrode; format: biochemical
[9] = system: HeLa cells expressing YFP-Parkin; experiment: Parkin translocation assay; format: cell-based, human
HepG2 cells [10] = settings: cited from earlier work
[11] = system: Nrf2/ARE (ARE-bla HepG2 cells); experiment: ARE β-lactamase reporter gene assay; format: cell-based, human; settings: Homo sapiens, HepG2; 16 h incubation; mean±SD of three experiments; read-out: ARE (HepG2) EC50
hNSC = experiment: MMP assay in human neural stem cells (hNSC); format: cell-based; settings: Homo sapiens, Neural stem cell, 1 h, read-out: hNSC IC50 (MMP)
[12] = system: Caenorhabditis elegans strain PE255; experiment: In vivo C. elegans ATP status assay

O=C(Nc1ccccc1)Nc1cnns1 [Thidiazuron]
p53 (HCT-116) EC50 [1]: Inactive | ROS (HepG2) EC50 (HepG2 cells [2]): Inactive | IC50 (HepG2 cells [3]; HepG2, 1 h, read-out: HepG2 IC50 Galactose (MMP)): 14.6 µM | IC50 (HepG2 cells [3]; HepG2, 1 h, read-out: HepG2 IC50 Glucose (MMP)): 12 µM | IC50 (HepG2 cells [3]; HepG2, read-out: MMP assays IC50 (µM) HepG2): 6.31 µM | Emax (HepG2 cells [3]; HepG2, read-out: MMP assays efficacy (%) HepG2): 104% | IC50 (rat primary hepatocytes [4]; 1 h, read-out: Rat hepatocytes IC50 (MMP)): 14.7 µM | IC50 (rat primary hepatocytes [4]; read-out: MMP assays IC50 (µM) Rat Hepatocytes): 4.56 ± 2.78 µM | ATP (HepG2, galactose) IC50 (HepG2 cells [5]): Inactive | ATP (HepG2, glucose) IC50 (HepG2 cells [5]): Inactive | EXT: mean difference in nematode size relative to plate controls ([6]; 0.5 µM): 0.1764 | EXT: mean difference in nematode size relative to plate controls ([6]; 1 µM): 0.07124 | EXT: mean difference in nematode size relative to plate controls ([6]; 5 µM): 0.08978 | EXT: mean difference in nematode size relative to plate controls ([6]; 10 µM): 0.07446 | EXT: mean difference in nematode size relative to plate controls ([6]; 25 µM): 0.09242 | EXT: mean difference in nematode size relative to plate controls ([6]; 50 µM): 0.2069 | EXT: mean difference in nematode size relative to plate controls ([6]; 75 µM): 0.07987 | effect on larval growth (in words) ([6]; 0.5–100μM): did not affect growth | MMP assays efficacy (%) Rat Hepatocytes (rat primary hepatocytes [7]): -136±46% | Rat hepatocytes (efficacy) (MMP) (rat primary hepatocytes [7]): 14.7±2.52 ( −98.5±15.2 ) % | Potential Mechanism [8]: Uncoupler | I-ADP, % of control (O2 consumption rate) ([8]; 0.16 µM): 93 (51.1) % of control | I-sub, % of control (O2 consumption rate) ([8]; 0.16 µM): 104 (13.6) % of control | II-ADP, % of control (O2 consumption rate) ([8]; 0.16 µM): 91 (80.1) % of control | II-sub, % of control (O2 consumption rate) ([8]; 0.16 µM): 100 (24.5) % of control | I-ADP, % of control (O2 consumption rate) ([8]; 0.8 µM): 74 (40.3) % of control | I-sub, % of control (O2 consumption rate) ([8]; 0.8 µM): 95 (12.4) % of control | II-ADP, % of control (O2 consumption rate) ([8]; 0.8 µM): 93 (82.2) % of control | II-sub, % of control (O2 consumption rate) ([8]; 0.8 µM): 106 (26.1) % of control | I-ADP, % of control (O2 consumption rate) ([8]; 4 µM): 87 (47.5) % of control | I-sub, % of control (O2 consumption rate) ([8]; 4 µM): 134 (17.5) % of control | II-ADP, % of control (O2 consumption rate) ([8]; 4 µM): 95 (83.6) % of control | II-sub, % of control (O2 consumption rate) ([8]; 4 µM): 119 (29.3) % of control | I-ADP, % of control (O2 consumption rate) ([8]; 20 µM): 99 (54.4) % of control | I-sub, % of control (O2 consumption rate) ([8]; 20 µM): 311 (40.8) % of control | II-ADP, % of control (O2 consumption rate) ([8]; 20 µM): 104 (92.1) % of control | II-sub, % of control (O2 consumption rate) ([8]; 20 µM): 269 (66.2) % of control | Parkin recruitment [9]: Inactive | MMP assays efficacy (%) qHTS-HepG2 (HepG2 cells [10]): -126±9% | IC50 (HepG2 cells [10]; read-out: MMP assays IC50 (µM), qHTS-HepG2): 3.43 ± 0.73 µM | EC50 [11]: 27.3 ± 9.74 µM | IC50 (hNSC): 8.39 µM | LUM: mean difference in luminescence (ATP content) relative to plate controls ([12]; 0.5 µM): 0.0432 | LUM: mean difference in luminescence (ATP content) relative to plate controls ([12]; 1 µM): 0.1041 | LUM: mean difference in luminescence (ATP content) relative to plate controls ([12]; 5 µM): 0.03776 | LUM: mean difference in luminescence (ATP content) relative to plate controls ([12]; 10 µM): 0.1711 | LUM: mean difference in luminescence (ATP content) relative to plate controls ([12]; 25 µM): 0.3608 | LUM: mean difference in luminescence (ATP content) relative to plate controls ([12]; 50 µM): 0.588 | LUM: mean difference in luminescence (ATP content) relative to plate controls ([12]; 75 µM): 0.6504 | LUM: mean difference in luminescence (ATP content) relative to plate controls ([12]; 100 µM): 0.4761 | effect on ATP content (in words) ([12]; 0.5–100μM): statistically significant decreases in ATP content | minimal effective concentration ([12]; Caenorhabditis elegans, read-out: LEC LUM: lowest effect concentration for luminescence, a measure of nematode ATP content): 50 µM
